Measurements from patent US10906888B2, “Pyrimidine carboxamides as inhibitors of Vanin-1 enzyme” (Pfizer Inc., priority 2016, dated 2021).

Legend:
[1] = target: human vanin-1 (Homo sapiens (Human), UniProt O95497); assay: Human Vanin-1 Enzyme Assay 1; assay type: biochemical; settings: 25 pM human vanin-1, 50 uM pantetheine 7-amino-4-trifluoromethylcoumarin substrate
Experimental: Human Vanin-1Enzyme Assay 1.
The in vitro assay measures enzymatic cleavage of the fluorescently-labeled vanin substrate, pantetheine 7-amino-4-trifluoromethylcoumarin, by human vanin-1.
The vanin-1 protein was prepared in-house from a construct expressing the extracellular domain of human vanin-1 (GenBank ID NM_004666) preceded N-terminally by the honey bee melittin signal peptide, a GSG linker sequence, a His6× tag and a FLAG tag. The secreted, soluble enzyme was purified from the conditioned medium from a CHO cell line stably expressing the resulting protein. Enzyme purification was performed through sequential Ni NTA and size-exclusion chromatography steps.
Intermediate concentrations were prepared by diluting in DMSO in a four-fold series for a total of 11 data points.
To begin the assay 100 nL was transferred from the compound plate to the assay plate. Next, 15 μL of the vanin-1 working solution were transferred to the assay plate. The inhibitor and enzyme were incubated at room temperature for 30 minutes. The enzyme reaction was then initiated by the addition of 5 μL of 200 μM pantetheine 7-amino-4-trifluoromethylcoumarin prepared in assay buffer. […] The final concentration of DMSO was 0.5%.

[2] = target: human vanin-1 present in human plasma (Homo sapiens (Human), UniProt O95497); assay: Vanin-1 in Human Plasma Assay; assay type: biochemical; settings: 50% pooled human plasma, 50 uM substrate
Sequence of human vanin-1 present in human plasma (O95497 22-491): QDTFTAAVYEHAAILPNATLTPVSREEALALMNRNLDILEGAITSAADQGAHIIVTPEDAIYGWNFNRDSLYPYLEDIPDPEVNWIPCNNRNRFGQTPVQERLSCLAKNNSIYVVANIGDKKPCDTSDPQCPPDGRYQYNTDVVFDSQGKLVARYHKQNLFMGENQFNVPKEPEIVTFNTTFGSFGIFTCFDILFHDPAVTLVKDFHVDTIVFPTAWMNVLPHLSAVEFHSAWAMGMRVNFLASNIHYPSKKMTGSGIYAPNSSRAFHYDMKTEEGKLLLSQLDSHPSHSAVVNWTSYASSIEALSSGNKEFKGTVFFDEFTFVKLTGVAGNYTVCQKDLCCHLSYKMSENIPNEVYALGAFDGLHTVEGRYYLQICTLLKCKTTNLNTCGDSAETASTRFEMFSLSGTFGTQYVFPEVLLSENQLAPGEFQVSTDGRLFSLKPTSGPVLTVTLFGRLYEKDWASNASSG
Experimental: Vanin-1 in Human Plasma Assay.
The in vitro assay measures enzymatic cleavage of the fluorescently-labeled vanin substrate, pantetheine 7-amino-4-trifluoromethylcoumarin, by human vanin-1 present in human plasma.
Human plasma was prepared from whole blood drawn from healthy donors, collected in tubes containing sodium heparin. The plasma fractions were separated from the whole blood by centrifugation for 10 minutes at 2000×g and pooled.
The test inhibitors were solubilized in DMSO to a stock concentration of 30 mM. On the day of the assay, dose response plates were prepared by diluting the inhibitors in DMSO to a compound concentration 200-fold the final in-assay concentration. Concentration series were prepared by serially diluting in 100% DMSO in a three-fold series. […] From this intermediate compound plate, 10 μL were transferred to the assay plate and mixed with 20 uL of the pooled human plasma. The inhibitor and enzyme were co-incubated at room temperature for 30 minutes. The enzyme reaction was initiated by the addition of 10 μL of 200 uM pantetheine 7-amino-4-trifluoromethylcoumarin prepared in assay buffer. The final concentrations in the assay were 50% plasma, and 50 uM substrate. The final concentration of DMSO was 0.5%. Datapoints were measured over time using a Tecan Safire 2 platereader at 405 nm excitation wavelength and a 510 nm emission wavelength for detection.

Sequence of human vanin-1 (O95497 22-491): as above

| Structure (SMILES) | IC50 [1] [nM] | IC50 [2] [nM] |
| --- | --- | --- |
| O=C(c1cnc(NC2(c3cncnc3)CC2)nc1)N1CCC2(CC1)COC2 [Example 59] | 47.4 | 49.2 |
| Cc1ccc(CNc2ncc(C(=O)N3CC4(CCOCC4)C3)cn2)cn1 [Example 172] | 4.53 | 17.4 |
| O=C(c1cnc(NC2(c3cncnc3)CC2)nc1)N1CCCC1 [Example 87] | 79.8 | 68 |
| O=C(c1cnc(NC2(c3cncnc3)CC2)nc1)N1CCCC(F)(F)C1 [Example 70] | 175 | 205 |
| Cc1ccc(CNc2ncc(C(=O)N3CCC4(CCOCC4)C3)cn2)cn1 [Example 137] | 5.24 | 5.02 |
| Cc1ccc([C@H](C)Nc2ncc(C(=O)N3CCC4(CCOCC4)C3)cn2)cn1 [Example 140] | 0.283 | 0.95 |
| Cc1ccc(C(C)Nc2ncc(C(=O)N3CCC4(CCOCC4)C3)cn2)cn1 (stereo not drawn) [Example 162] | 0.629 | 2.97 |
| O=C(c1cnc(NCc2cccnc2)nc1)N1C[C@H]2CCC[C@@H](O)[C@H]2C1 (relative stereo) [Example 3] | 1.69 |  |
| O=C(c1cnc(NC2(c3cncnc3)CC2)nc1)N1CC2CCCC2C1 (stereo not drawn) [Example 69] | 1.85 |  |
| O=C(c1cnc(NC2(c3cncnc3)CC2)nc1)N1CCCOCC1 [Example 42] | 35.1 |  |
| O=C(c1cnc(NC2(c3cncnc3)CC2)nc1)N1CCCC1C(F)(F)F (stereo not drawn) [Example 73] | 829 |  |
| O=C(c1cnc(NC2(c3cncnc3)CC2)nc1)N1CCCC[C@@H]1CO [Example 82] | 147 |  |
| O=C(c1cnc(NCc2cccnc2)nc1)N1CCC(O)CC1 [Example 21] | 528 |  |
| O=C(c1cnc(NC2(c3cncnc3)CC2)nc1)N1CC2C(C1)C2C(F)(F)F (stereo not drawn) [Example 64] | 100 |  |
| O=C(c1cnc(NCc2cccnc2)nc1)N1CCC2(CCOCC2)C1 [Example 1] | 1.31 |  |
| COCC1CCCN(C(=O)c2cnc(NC3(c4cncnc4)CC3)nc2)C1 (stereo not drawn) [Example 71] | 5.41 |  |
| O=C(c1cnc(NCc2cccnc2)nc1)N1CC(O)(C2CC2)C1 [Example 5] | 16 |  |
| Cc1ccc(C2(Nc3ncc(C(=O)N4CC5(CCOCC5)C4)cn3)CC2)cn1 [Example 176] | 0.911 |  |
| COCC1COCCN(C(=O)c2cnc(NC3(c4cncnc4)CC3)nc2)C1 (stereo not drawn) [Example 85] | 167 |  |
| O=C(c1cnc(NCc2cccnc2)nc1)N1CCC(C(F)(F)F)C1 (stereo not drawn) [Example 7] | 17.9 |  |
| C[C@H]1CN(C(=O)c2cnc(NCc3cccnc3)nc2)C[C@@H]1CO [Example 6] | 17.9 |  |
| CO[C@@H]1CN(C(=O)c2cnc(NC3(c4cncnc4)CC3)nc2)C[C@H]1F [Example 84] | 75.4 |  |
| O=C(c1cnc(NC2(c3cncnc3)CC2)nc1)N1CCC2(CCCCO2)CC1 [Example 50] | 19.9 |  |
| O=C(c1cnc(NC2(c3cncnc3)CC2)nc1)N1C[C@@H]2CCCC[C@]2(CO)C1 (relative stereo) [Example 61] | 2.51 |  |
| Cc1ccc(C(C)Nc2ncc(C(=O)N3CC4(CCOCC4)C3)cn2)cn1 (stereo not drawn) [Example 163] | 1.77 |  |
| O=C(c1cnc(NCc2cccnc2)nc1)N1CCCC(O)C1 (stereo not drawn) [Example 22] | 559 |  |

Results, then the compound that gave them:

| IC50 [1] [nM] | IC50 [2] [nM] | Structure (SMILES) |
| --- | --- | --- |
| 0.677 | 1.3 | C[C@H](Nc1ncc(C(=O)N2CCC3(CCOCC3)C2)cn1)c1cncnc1 [Example 149] |
| < 0.041 | 0.743 | O=C(c1cnc(NC2(c3cnccn3)CCC2)nc1)N1CCC2(CCOCC2)C1 [Example 130, 8-oxa-2-azaspiro[4.5]dec-2-yl(2-{[1-(pyrazin-2-yl)cyclobutyl]amino}pyrimidin-5-yl)methanone] |
| 10.9 | 9.86 | COC1CCCN(C(=O)c2cnc(NC3(c4cncnc4)CC3)nc2)C1 (stereo not drawn) [Example 96] |
| 0.65 | 1.89 | C[C@H](Nc1ncc(C(=O)N2CC3(CCOCC3)C2)cn1)c1cnccn1 [Example 147] |
| 5.48 | 4.63 | O=C(c1cnc(NCc2cncnc2)nc1)N1CC2(CCOCC2)C1 [Example 186] |
| 4.39 | 27.5 | C[C@H](Nc1ncc(C(=O)N2CCC3(CCOCC3)C2)cn1)c1ccncn1 [Example 155] |
| 7.12 | 5.39 | O=C(c1cnc(NC2(c3cncnc3)CC2)nc1)N1CCC(C(F)(F)F)C1 (single isomer, unassigned) [Example 193] |
| 32.6 | 39.1 | O=C(c1cnc(NCc2cncnc2C(F)(F)F)nc1)N1CCC2(CCOCC2)C1 [Example 166] |
| 0.277 | 1.17 | O=C(c1cnc(NC2(c3cncnc3)CC2)nc1)N1CCC2(CCOCC2)C1 [Example 188, 8-oxa-2-azaspiro[4.5]dec-2-yl(2-{[1-(pyrimidin-5-yl)cyclopropyl]amino}pyrimidin-5-yl)methanone] |
| 7.33 | 14.4 | O=C(c1cnc(NC2(c3ncccn3)CC2)nc1)N1CC2(CCOCC2)C1 [Example 179] |
| 0.062 | 1.08 | CC(C)(Nc1ncc(C(=O)N2CCC3(CCOCC3)C2)cn1)c1cnccn1 [Example 182, 8-oxa-2-azaspiro[4.5]dec-2-yl(2-{[2-(pyrazin-2-yl)propan-2-yl]amino}pyrimidin-5-yl)methanone] |
| 0.875 | 12.9 | O=C(c1cnc(NC2(c3cnccn3)CC2)nc1)N1CCC2(CCOCC2)C1 [Example 157] |
| 27.8 | 35.6 | C[C@@H](Nc1ncc(C(=O)N2CCC3(CCOCC3)C2)cn1)c1cncnc1 [Example 150] |
| 12.5 | 12.4 | O=C(c1cnc(NC2(c3cncnc3)CC2)nc1)N1CCCCC1 [Example 190] |
| 387 | 452 | CC1(CO)CCCN(C(=O)c2cnc(NC3(c4cncnc4)CC3)nc2)C1 (stereo not drawn) [Example 108] |
| 10.6 | 32.6 | CS(=O)(=O)C1CCCN(C(=O)c2cnc(NC3(c4cncnc4)CC3)nc2)C1 (single isomer, unassigned) [Example 200] |
| 0.116 | 1.61 | O=C(c1cnc(NC2(c3cncnc3)CCC2)nc1)N1CCC2(CCOCC2)C1 [Example 173] |
| 0.082 | 1.22 | CC(C)(Nc1ncc(C(=O)N2CCC3(CCOCC3)C2)cn1)c1cncnc1 [Example 143, 8-oxa-2-azaspiro[4.5]dec-2-yl(2-{[2-(pyrimidin-5-yl)propan-2-yl]amino}pyrimidin-5-yl)methanone] |
| 91.3 |  | C[C@@H](Nc1ncc(C(=O)N2CC3(CCOCC3)C2)cn1)c1cncnc1 [Example 152] |
| 0.867 |  | O=C(c1cnc(NC2(c3cncnc3)CC2)nc1)N1CC2(CCOCC2)C1 [Example 189] |
| 0.504 |  | O=C(c1cnc(NC2(c3cncnc3)COC2)nc1)N1CC2(CCOCC2)C1 [Example 134] |
| 590 |  | C[C@@H]1COCCN1C(=O)c1cnc(NC2(c3cncnc3)CC2)nc1 [Example 103] |
| 3.04 |  | C[C@H](Nc1ncc(C(=O)N2CCN3CCC[C@H]3C2)cn1)c1cnccn1 [Example 125] |
| 26.3 |  | Cc1cnc(CNc2ncc(C(=O)N3CC4(CCOCC4)C3)cn2)cn1 [Example 165] |
| 4.29 |  | C[C@H](Nc1ncc(C(=O)N2CCC3(CCOCC3)C2)cn1)c1ccnnc1 [Example 153] |
| 5.66 |  | O=C(c1cnc(NC2(c3cncnc3)CC2)nc1)N1CCC(F)(F)CC1 [Example 98] |
| 158 |  | O=C(c1cnc(NCc2cnc(C(F)(F)F)nc2)nc1)N1CC2(CCOCC2)C1 [Example 169] |
